In assay [1] the test system is HAPI cells. The assay is classed as cell-based, rat. The following applies: 0.5 μg/ml, 1 h.
For assay [2], the system named is HAPI cells. It is filed as cell-based, rat. As to the method: Figure 5 Toxicity studies of RK-33 in mice • Following injection of 20 mg/kg of RK-33, twice a week for 7 weeks, extensive histopathological examination was carried out following necropsy. Identical patterns were observed both in the control and in the treated mice (n = 2). Samples were stained with H&E. Scale bar is 50 μm. • Pharmacokinetics of RK-33 in SCID mice at various time intervals. Results are mean ± SD from 5 mice. LC-MS/MS method was used to determine concentration of RK-33 in mouse plasma and tissue. • Liquid chromatography–mass spectrometry (LC-MS/MS) analysis was performed to determine different metabolites of RK-33. • RK-33 and metabolites characterized by LC-MS/MS in human liver microsomes using the scan mode function of the LC-MS/MS. • HAPI cells were treated with RK-33 (10 μM), HA14-1 (25 μM), or DMSO vehicle, followed by oligomycin (oligo, 0.5 μg/ml), FCCP (3 μM), and antimycin A (AA, 1 μM) while oxygen consumption rate (OCR) was measured. Pyruvate (10 mM) was added in combination with FCCP to ensure that substrate supply was not rate-limiting for maximal OCR. Data are mean ± SD from 2 to 3 wells and representative of independent experiments performed with two different HAPI passages. OCR is baseline-normalized to the point prior to drug or vehicle addition. • HAPI microglial cells were incubated for 1 h in glucose-free XF24 assay medium that was supplemented with 2-deoxyglucose (50 mM) and pyruvate (10 mM). RK-33 (10 μM), oligomycin (0.5 μg/ml), or vehicle control was additionally present as indicated. Results are mean ± SD from 12 replicates pooled from experiments using two consecutive passages. Significance was assessed by two-sided, unpaired t-test. […]
Oxygen consumption measurements were performed using an XF24 Extracellular Flux Analyzer (Seahorse Bioscience, Billerica, MA) as previously described (Wu et al, [2007]; Clerc & Polster, [2012]). […] The ATP bioluminescent somatic cell assay kit (Sigma-Aldrich) was employed for the determination of ATP levels by luminescence using a FLUOstar OPTIMA multimodal plate reader (BMG LABTECH, Inc., Cary, NC). […]

In the case of `CC[C@H]1/C=C/C=C/C[C@@H](C)[C@H](O)[C@@](C)(O)C(=O)[C@@H](C)[C@H](O)[C@@H](C)C(=O)[C@@H](C)[C@H](O)[C@@H](C)/C=C/C(=O)O[C@@H]2[C@H](C)[C@H](CC1)O[C@]1(CC[C@H](C)[C@H](C[C@@H](C)O)O1)[C@H]2C` [oligomycin], the “decrease of total cellular ATP” value in the assay on HAPI cells [1] is on record as “approximately 70%”.

As to `CCOC(=O)C1=C(N)Oc2ccc(Br)cc2C1C(C#N)C(=O)OCC` (stereo not shown) [HA14-1], in the assay on HAPI cells [2] (25 μM, positive control), the “OCR measured in the presence of FCCP” value is “decreased OCR measured in the presence of FCCP” and the oligomycin-insensitive oxygen consumption entry is “elevated oligomycin-insensitive oxygen consumption”. With `CCCCCC[C@H]1C(=O)O[C@H](C)[C@H](NC(=O)c2cccc(NC=O)c2O)C(=O)O[C@@H](C)[C@@H]1OC(=O)CC(C)C` [antimycin A], the “oxygen consumption in the presence of all drugs” value with HAPI cells [2] (1 μM) is listed as “potently inhibited”.
